# Like-named read-outs stand apart in the source and are kept apart here.
# Experiments:
# [1] = Water solubility of hydroxyitraconazole phosphate isomers (NMG salts); assay type: physicochemical; details: Table 8; for solubility: water
# From the text: The water solubility of the NMG salts of the phosphate esters of isomers 1, 2 and 3+4 were investigated and compared to the corresponding hydroxyitraconazole isomers 1, 2 and 3+4. The phosphate esters were as much as 10^7 times more water soluble than the corresponding hydroxyitraconazole isomer.
# [2] = system: delayed rectifier (IK); details: cited from earlier work; for Effect on cardiac repolarization: Torsades de Pointes side effect
# [3] = system: Candida albicans; test: Antifungal MIC, Candida albicans; assay type: cell-based
# Protocol: (§1) A 10 mL tube containing 4 mL of Sabourauds dextrose broth was inoculated with 1 colony of Candida albicans picked from a plate of pure culture. The strain was ordered from the American Type Culture Collection (ATCC). The organism was grown for 4 hours at 30° C. while shaking at 150 RPM. While the organism was growing, samples of hydroxy-itraconazoles were solubilized to a concentration of 10 mg/mL in DMSO. Each sample was then diluted 1:10 to make 1 mg/mL samples or 1000 μg/mL. These samples were then diluted by serial 2-fold dilutions to produce samples now containing 1000, 500, 250, 125, 62.5, 31.25, 15.6 μg/mL. […] At 4 hours of growth time the Candida albicans was diluted to a 0.5 McFarland standard representing about 10^5 -10^6 cells/mL and 1 μL of this inoculum placed into each test well of the microtiter dish. The dish was then covered and incubated at 30° C. for 16 hours.
# [4] = system: Cr. neoformens; test: Antifungal MIC, Cr. neoformens; assay type: cell-based, Cryptococcus neoformens
# Protocol: [The source words this procedure for another organism and reports this organism under the same test.] as §1
# [5] = system: S. cerevisae; test: Antifungal MIC, S. cerevisae; assay type: cell-based, Saccharomyces cerevisiae
# Protocol: [The source words this procedure for another organism and reports this organism under the same test.] as §1
# [6] = Hydrolysis of phosphate esters in human plasma; assay type: in vitro ADME; details: both free acid and bis(N-methylglucamine) salt
# Protocol: (§2) The phosphate analogs of the isomers with the largest IC50 /MIC ratios, 1, 2 and 3+4 were further investigated for hydrolysis in plasma and tissues. […] The A% conversion (as determined by HPLC A% analysis) of the phosphate ester to the hydroxy compound was determined in three systems: human plasma, equine pancreas and porcine brain. […] Hydrolysis proceeded to >10% overnight at 37° C. in pancreas and brain, and 3% in human plasma. The hydrolyses of the three phosphates of 1, 2 and 3+4 were also studied in various rat tissues and plasma. In all cases, the jejunum and liver gave the greatest conversion to hydroxyitraconazole, ranging from 20% to 40% for the free acids.
# [7] = Hydrolysis of phosphate esters in equine pancreas; assay type: in vitro ADME; details: both free acid and bis(N-methylglucamine) salt
# Protocol: as §2
# [8] = Hydrolysis of phosphate esters in porcine brain; assay type: in vitro ADME; details: both free acid and bis(N-methylglucamine) salt
# Protocol: as §2
# [9] = system: Sacchromyces cerevisae; test: Kirby-Bauer Testing, Saccharomyces cerevisiae; assay type: cell-based; details: 10 μl of 10 mg/mL per disk, 30° C., 16 hours
# Protocol: The hydroxyitraconazole isomers were tested for biological activity according three different assays.
# Actively growing cultures of Candida albicans, Cryptococcus neoformens and Saccharomyces cerevisiae were prepared as described above. The cultures were diluted to a 0.5 McFarland standard and swabbed onto a 150 mm Sabouraud Dextrose agar plates. Paper disks (7 mm) were placed onto the agar plates using a disk dispenser. […] The plates were then incubated at 30° C. for 16 hours. Zones of inhibition were then measured in mm.
# [10] = system: A. fumigatis; test: Antifungal MIC, A. fumigatis; assay type: cell-based; details: A. fumigatis (Table 3)
# Protocol: [The source words this procedure for another organism and reports this organism under the same test.] as §1
# [11] = Water solubility of hydroxyitraconazole isomers and itraconazole; assay type: physicochemical
# Protocol: The isomers of cis hydroxyitraconazole were tested for water solubility against a […] standard solution of hydroxyitraconazole. […] The values for 3+4 and 11+12 are barely above the LOD, giving accuracies of ±10%. In every case, solubilities were in the 10^1 to 10^2 ng/ml range.
# [12] = biological target: T1, cytochrome P450 3A4 (Homo sapiens, UniProt P08684)
# Protocol: (§3) The IC50 values were determined by the appearance of 6β-hydroxytestosterone after incubation with testosterone. […] Of greater clinical significance is the ratio of the IC50 for 3A4 to the MIC for C. albicans 44203.
# [13] = biological target: T1, cytochrome P450 3A4; test: Inhibition of cytochrome P450 3A4 (testosterone 6β-hydroxylase activity)
# Protocol: as §3
# [14] = Candida albicans, C. albicans (Table 7, esters), read-out: Antifungal MIC
# T1 sequence (P08684 whole entry): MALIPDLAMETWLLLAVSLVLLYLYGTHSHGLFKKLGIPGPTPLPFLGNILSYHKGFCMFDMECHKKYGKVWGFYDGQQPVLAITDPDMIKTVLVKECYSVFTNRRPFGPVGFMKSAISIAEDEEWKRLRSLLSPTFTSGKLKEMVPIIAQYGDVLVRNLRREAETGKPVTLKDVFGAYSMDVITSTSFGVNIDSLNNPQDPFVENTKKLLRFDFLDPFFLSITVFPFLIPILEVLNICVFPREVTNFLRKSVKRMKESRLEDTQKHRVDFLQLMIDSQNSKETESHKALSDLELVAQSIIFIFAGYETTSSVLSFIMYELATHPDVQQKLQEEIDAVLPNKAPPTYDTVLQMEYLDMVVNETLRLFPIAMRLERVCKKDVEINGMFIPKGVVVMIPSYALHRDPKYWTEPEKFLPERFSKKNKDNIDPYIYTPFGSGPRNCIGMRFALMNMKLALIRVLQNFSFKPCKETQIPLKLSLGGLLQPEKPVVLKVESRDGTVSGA
molecule,measurement,setting,value
C[C@H](OP(=O)(O)O)[C@@H](C)n1ncn(-c2ccc(N3CCN(c4ccc(OC[C@H]5CO[C@](Cn6cncn6)(c6ccc(Cl)cc6Cl)O5)cc4)CC3)cc2)c1=O [2-PO3 --NMG2],solubility,[1],> 100 mg/mL
CC(C)NCC(O)c1ccc(NS(C)(=O)=O)cc1 (stereo not drawn) [sotalol],Effect on cardiac repolarization,[2],prolongation of cardiac repolarization
same,Block of delayed rectifier (IK),[2],ability to block a cellular potassium channel called the delayed rectifier (IK)
CCC(C)n1ncn(-c2ccc(N3CCN(c4ccc(OC[C@@H]5CO[C@@](Cn6cncn6)(c6ccc(Cl)cc6Cl)O5)cc4)CC3)cc2)c1=O (stereo partly drawn) [7 + 8],MIC,[3]; Candida albicans,< 0.078 µg/mL
C[C@H](OS(=O)(=O)O)[C@@H](C)n1ncn(-c2ccc(N3CCN(c4ccc(OC[C@H]5CO[C@](Cn6cncn6)(c6ccc(Cl)cc6Cl)O5)cc4)CC3)cc2)c1=O [Compound 2-sulfate],MIC,[3]; [14],6.25 µg/mL
"CC[C@H](C)n1ncn(-c2ccc(N3CCN(c4ccc(OC[C@H]5CO[C@](Cn6cncn6)(c6ccc(Cl)cc6Cl)O5)cc4)CC3)cc2)c1=O [Compound 5, reference compound]",MIC,[3]; Candida albicans,0.312 µg/mL
"CC[C@@H](C)n1ncn(-c2ccc(N3CCN(c4ccc(OC[C@@H]5CO[C@@](Cn6cncn6)(c6ccc(Cl)cc6Cl)O5)cc4)CC3)cc2)c1=O [Compound 8, reference compound]",MIC,[3]; Candida albicans,< 0.078 µg/mL
CC(OP(=O)(O)O)C(C)n1ncn(-c2ccc(N3CCN(c4ccc(OC[C@H]5CO[C@](Cn6cncn6)(c6ccc(Cl)cc6Cl)O5)cc4)CC3)cc2)c1=O (stereo partly drawn) [3 + 4-PO3 --NMG2],solubility,[1],> 100 mg/mL
C[C@H](OP(=O)(O)O)[C@@H](C)n1ncn(-c2ccc(N3CCN(c4ccc(OC[C@H]5CO[C@](Cn6cncn6)(c6ccc(Cl)cc6Cl)O5)cc4)CC3)cc2)c1=O [Compound 2-phosphate],MIC,[3]; [14],12.5 µg/mL
same,MIC,"[4]; Cryptococcus, Cr. neoformens (Table 7, esters)",12.5 µg/mL
same,MIC,"[5]; Saccharomyces cerevisiae, S. cerevisae (Table 7, esters)",12.5 µg/mL
same,Ease of hydrolysis of phosphate ester,[6],most readily hydrolyzed compound in all three systems
same,Ease of hydrolysis of phosphate ester,[7],most readily hydrolyzed compound in all three systems
same,Ease of hydrolysis of phosphate ester,[8],most readily hydrolyzed compound in all three systems
C=C[C@H]1C[N@@]2CC[C@H]1C[C@@H]2[C@@H](O)c1ccnc2ccc(OC)cc12 [quinidine],Effect on cardiac repolarization,[2],prolongation of cardiac repolarization
same,Block of delayed rectifier (IK),[2],ability to block a cellular potassium channel called the delayed rectifier (IK)
"(2S,4R)-4-[4-[4-[4-[[2,4-dichlorophenyl)-2-(1H-1,2,4-triazol-1-ylmethyl)-1,3-dioxolan-4-yl]methoxy]phenyl]-1-piperazinyl]-2,4-dihydro-2-[(1S,2R)-(2-hydroxy-1-methylpropyl)]-3H-1,2,4,-triazol-3-one [Compound 2]",Kirby-Bauer zone of inhibition,[9],20 mm
same,Antifungal MIC,[3]; C. albicans strain 10231 (Table 3),0.5 µg/mL
same,Antifungal MIC,[3]; C. albicans strain 28516 (Table 3),0.25 µg/mL
same,Antifungal MIC,[3]; C. albicans strain 28815 (Table 3),0.5 µg/mL
same,Antifungal MIC,[3]; C. albicans strain 44203 (Table 3),0.05 µg/mL
same,Antifungal MIC,[3]; C. albicans strain 44373 (Table 3),0.25 µg/mL
same,Antifungal MIC,[3]; C. albicans strain 62342 (Table 3),1.0 µg/mL
same,MIC,[3]; Candida albicans strain 44203 (Table 4),0.05 µg/mL
same,Antifungal MIC,[4]; Cr. neoformens (Table 3),0.39 µg/mL
same,Antifungal MIC,[5]; S. cerevisae (Table 3),0.39 µg/mL
same,Antifungal MIC,[10],0.137 µg/mL
same,Water solubility,"[11]; LOD: 5000 μV*sec, order-of-magnitude accuracy below LOD, 3+4 and 11+12 ±10%",not detected
same,Area,"[11]; λmax = 260 nm, LOD 5000 μV*sec",not even detected
same,Water solubility,[1],< 10 ng/mL
same,IC50 /MIC Ratio,[12],70
same,Inhibition of P450 3A4 in words,[13]; testosterone 6β-hydroxylase activity,"notably less inhibition of the P450 3A4 enzyme than the 2S,4R isomers"
same,IC50/MIC ratio in words,"[13]; therapeutic index, 3A4 vs C. albicans 44203",excellent results
